In publication PMC10781878, “AMWEst, a new thermostable and detergent-tolerant esterase retrieved from the Albian aquifer” (Applied Microbiology and Biotechnology, 2024):

Test system: T1, AMWEst
T1 construct: primer keeps native start codon (predicted signal peptide 1-22, LHA-EQ); ultrafiltered extracellular medium, not purified; about 50 kDa on SDS-PAGE, probably N-glycosylated
Test: spectrophotometric p-nitrophenol release at […] nm, Lineweaver-Burk plot
Format: biochemical, uncultured bacterium
Settings: 50 mM Tris/HCl pH 8.5, 40 mM CaCl2, 60 °C, 20 min; substrate 0.1-10 mM; concentrated extracellular medium of recombinant yeast

`CCCCCCCCCCCC(=O)Oc1ccc([N+](=O)[O-])cc1` [pNP12, p-nitrophenyl laurate] showed a Km of 1020 µM.
